Source: patent US12685738B2, “Inotodiol as agonist of liver x receptors, and use thereof” (CARBOEXPERT INC., priority 2020, dated 2026)
Several values for one entry are separate records, joined by “and”; a condition that tells them apart may be missing. Equal values may be shown once. Read-outs that look alike come from different tables or passages of the source.

Legend:
[1] = test system: rheumatoid arthritis; experiment: Bovine type II collagen-induced arthritis, macroscopic arthritic score; assay type: in vivo, male DBA/1J mice; conditions: 4 mg/kg or 10 mg/kg orally once a day for 4 weeks; vs arthritic animals not administered; FIG. 7
[2] = Inotodiol concentrations in blood and brain tissue (LC/MS); assay type: in vivo, Balb/c mice; conditions: 4.5 mg/kg orally for 10 days, sampled day 11; for concentration at 11 day: 4.5 mg/kg
Protocol: When inotodiol was administered to mice, the concentrations of inotodiol detected in blood and brain tissue of the mice were analyzed.
Specifically, 7-week-old Balb/c mice were supplied and acclimatized for 1 week, and then 4 mice per group were assigned to conduct experiments. Mice were grouped into: four controls not administered with inotodiol; and four groups administered with inotodiol. In the groups administered with inotodiol, 4.5 mg/kg of inotodiol was orally administered for 10 days. On day 11, the controls and inotodiol-administered mice were sacrificed, and blood and brain tissue samples were prepared.
First, to analyze the concentration of inotodiol in blood, 20 μL of serum was transferred to a 1.5 mL Eppendorf tube, and then inotodiol was extracted twice in ethanol. In each extraction step, 200 μL of ethanol was mixed with serum and the mixture was sonicated for 10 minutes, followed by centrifugation at 14000×g for 15 minutes.
To analyze the concentration of inotodiol in brain tissue, the whole brain was weighed and mixed with 10-fold (v/w) 100% ethanol, and then the mixture was sonicated and centrifuged.
After centrifugation, each residue was reconstituted with 0.5 mL of 60% methanol for solid phase extraction by using a C18 cartridge (Sep-Pak C18 3 cc Vac Cartridge, 200 mg adsorbent, Waters). Samples were loaded into cartridges and activated using methanol (6 mL), followed by conditioning with 60% methanol (6 mL). The cartridges were then washed with 6 mL of 60% methanol. Then, inotodiol was collected by eluting the cartridges with 100% methanol (3 mL) in glass tubes. After evaporation of each sample, the residue was dissolved in methanol and subjected to LC/MS analysis.

[3] = test system: LXR-related markers (Abca1, Srebf1_1C, AQP1, ApoE1); experiment: In vivo qPCR analysis of effect of inotodiol on LXR-related markers; parameters: species or system mice (BALB/cAnNTacSam)
Protocol: The effect of inotodiol on Abca1, Srebf1_1C, AQP1, and ApoE1, which are LXR-related markers, was analyzed.
First, an inotodiol emulsion for administration at a dose of 4 mg/kg was prepared. Specifically, an emulsion was prepared by mixing inotodiol with 10% of olive oil (Monini, Classico extra virgin olive oil), 0.5% of tween 80, and sterile water. Subsequently, each 0.15 mL of the prepared emulsion was administered to BALB/cAnNTacSam (Sam Taco Bio Korea Co., Ltd.) for 5 days. After 5 days of administration, mice were euthanized, and then spleen, lung, liver and peritoneal cell samples were isolated.
Next, to perform qPCR on the isolated samples, total RNA was extracted using a Bead™ Total RNA Prep Kit (BioFACT™) sample. Thereafter, primers for Abca1, Srebf1_1C, AQP1, and ApoE1 were used, the reaction reagent for qPCR was 2× Real-Time PCR Master Mix (BioFACT™), and the equipment used for qPCR was AriaMx Real-time PCR. The qPCR conditions were as follows: at 95° C. for 15 minutes, and 50 cycles at 95° C. for 20 seconds, 55° C. for 30 seconds, and 72° C. for 0.5-1 min/kb, and for the melting curve, 1 cycle was performed at 95° C. for 30 seconds, 65° C. for 30 seconds, and 95° C. for 30 seconds, and relative mRNA expression was measured.

[4] = test system: TNF-α; experiment: TNF-α ELISA in arthritic animals; assay type: in vivo, mouse; conditions: arthritic animals administered with inotodiol; FIG. 8
Protocol: Next, the expression of TNF-α, which is a factor that activates inflammation, was confirmed. […] Then, the coating buffer was removed, followed by washing three times with 200 μL of washing buffer (0.05% Tween20/PBS). To prevent non-specific binding, a reaction with 200 μL of a blocking solution (1% BSA/PBS) was allowed to occur at room temperature for 1 hour. Washing was performed three times using a washing buffer. A standard material (Biolgend) and each sample were diluted using a blocking solution, and then 100 μL of each thereof was dispensed, and a reaction was allowed to occur therein at room temperature for 2-4 hours. Washing was performed three times using a washing buffer. A secondary antibody (biotin-labeled detection antibody, biolegend) was diluted to 0.25-2 μg/mL using a blocking solution, and then 100 μl thereof was dispensed and a reaction was allowed to occur therein at room temperature for 1 hour. Washing was performed three times using a washing buffer. Avidin-Horseradish peroxidase (Biolegend) was diluted 1/1000 times using a blocking solution, then 100 μL thereof was dispensed and a reaction was allowed to occur therein at room temperature for 30 minutes. Washing was performed 5 times using a washing buffer. […] An ELISA plate was examined at 450 nm using an EPOCH microplate reader (Biotek).

[5] = Two-week mouse toxicity test: health signs and total fat content of liver; conditions: for changes in total fat content of the liver: male and female mice, 2 weeks
Protocol: If inotodiol is a LXR-α agonist, inotodiol overexpresses Srebf1 in the liver, thereby inducing fatty liver. Selectivity for LXRs and safety of inotodiol were evaluated through a two-week mouse toxicity test.
Specifically, the inotodiol emulsion was orally administered to male and female ICR mice in an amount of 0.0 mg/kg (group 1), 5.0 mg/kg (group 2), and 20 mg/kg (group 3) once a day for 2 weeks. […] As a control, 100% olive oil was administered.

[6] = test system: ABCA1; experiment: Real-time PCR of ABCA1 gene expression in brain tissue; assay type: in vivo, Balb/c mice; conditions: Ino (10 mpk) vs control (Naïve); groups prepared as in Example 3; FIG. 6A
Protocol: (§1) When inotodiol was administered to mice, the expression of ABCA1 and APOE in brain tissue, which are genes related to neurodegenerative brain diseases, was analyzed.
(§2) Specifically, as in Example 3, controls and inotodiol-administered mouse groups were prepared, and then, to extract total RNA, first, 50 mg of brain tissue samples were quantified, and then cells were crushed using a mortar. 1 mL of Trizol was dispensed into each crushed sample and mixed by vortexing. Then, 0.2 mL of chloroform was dispensed and a reaction was allowed to occur therein at room temperature for 3 minutes. The reaction product was centrifuged at 12,000 rpm and 4° C. for 15 minutes, and then only the transparent supernatant was transferred to a new tube. Thereafter, 0.5 mL of isopropyl alcohol was dispensed, and then a reaction was allowed to occur therein at room temperature for 10 minutes. The resultant was centrifuged 12,000 rpm and 4° C. for 10 minutes, and then the supernatant was completely removed, and impurities were removed using 1 mL of 75% ethanol. […] Each sample was dissolved using DEPC water, and then total RNA was quantified to 1000 ng/μL using Nanodrop, and cDNA synthesis was performed using primeScript RT Master Mix (Takara Korea). […]

[7] = test system: APOE; experiment: Real-time PCR of APOE gene expression in brain tissue; assay type: in vivo, Balb/c mice; conditions: Ino (10 mpk) vs control (Naïve); groups prepared as in Example 3; FIG. 6B
Protocol: as §1, §2

[8] = inotodiol emulsion 4 mg/kg for 5 days, various samples (FIGS. 1 to 5), vs untreated control
[9] = liver sample, 4 mg/kg for 5 days

## CC(C)=CC[C@@H](O)[C@@H](C)[C@H]1CC[C@@]2(C)C3=C(CC[C@]12C)[C@@]1(C)CC[C@H](O)C(C)(C)[C@@H]1CC3 [inotodiol, (3S,5R,10S,13R,14R,17R)-17-[(2S,3R)-3-hydroxy-6-methylhept-5-en-2-yl]-4,4,10,13,14-pentamethyl-2,3,5,6,7,11,12,15,16,17-decahydro-1H-cyclopenta[a]phenanthren-3-ol]
[1]
  macroscopic arthritic score (maximum score=16): lower
[2]
  Inotodiol concentration (ng/g) Brain, individual mice: 177.1 ng/g and 133.3 ng/g and 135.0 ng/g
[2]; 4 mice
  Inotodiol concentration (ng/g) Brain, Average: 151.7 ± 21.3 ng/g
[2]; 4 mice, serum
  Inotodiol concentration (ng/g) Blood, Average: 12.1 ± 1.3 ng/g
[2]; serum
  Inotodiol concentration (ng/g) Blood, individual mice: 10.5 ng/g and 14.2 ng/g and 11.8 ng/g
[2]; Balb/c, mouse, brain / blood (serum), oral, read-out: inotodiol detected in the brain relative to blood
  Kp at 11 day: ~12
[2]; Balb/c, mouse, brain, oral, 4 mice, read-out: Inotodiol concentration (ng/g) Brain, Average
  concentration at 11 day: 152 ± 21.3 ng/g
[2]; Balb/c, mouse, brain, oral, read-out: Inotodiol concentration (ng/g) Brain, individual mice
  concentration at 11 day: 161 ng/g
[2]; Balb/c, mouse, serum, oral, 4 mice, serum, read-out: Inotodiol concentration (ng/g) Blood, Average
  concentration at 11 day: 12.1 ± 1.3 ng/g
[2]; Balb/c, mouse, serum, oral, serum, read-out: Inotodiol concentration (ng/g) Blood, individual mice
  concentration at 11 day: 12.2 ng/g
[3]; [8]
  expression of AQP1 (relative mRNA expression): increases
  expression of Abca1 (relative mRNA expression): increases
  expression of ApoE1 (relative mRNA expression): increases
  expression of Srebf1 (relative mRNA expression): increases
[3]; [9]
  expression of AQP1, regulated by LXR-β: significant increase
  expression of Srebf1, specifically regulated by LXR-α: no significant increase
[3]; liver sample, inferred from Srebf1 and AQP1 expression
  LXR-α / LXR-β selectivity inferred from marker expression: does not bind well to LXR-α and acts as an agonist by more specifically binding to LXR-β
[4]
  TNF-α expression (ELISA): lower level
[5]; Female, Group 2 (5.0 mg/kg oral once a day for 2 weeks)
  Total fat (%) in mouse liver, Average: 3.24%
[5]; Female, Group 2 (5.0 mg/kg oral once a day for 2 weeks), 5 mg/kg
  Total fat (%) in mouse liver, individual animal analyses: 2.96% and 3.08% and 2.80% and 2.72% and 3.45% and 3.57% and 3.03% and 3.10% and 4.42% and 3.82% and 2.85% and 3.09%
[5]; Female, Group 3 (20 mg/kg oral once a day for 2 weeks)
  Total fat (%) in mouse liver, Average: 3.56%
[5]; Female, Group 3 (20 mg/kg oral once a day for 2 weeks), 20 mg/kg
  Total fat (%) in mouse liver, individual animal analyses: 4.01% and 4.03% and 3.49% (2×) and 2.69% and 2.94% and 3.09% and 3.19% and 3.16% and 3.23% and 4.77% and 4.62%
[5]; Male, Group 2 (5.0 mg/kg oral once a day for 2 weeks)
  Total fat (%) in mouse liver, Average: 3.23%
[5]; Male, Group 2 (5.0 mg/kg oral once a day for 2 weeks), 5 mg/kg
  Total fat (%) in mouse liver, individual animal analyses: 3.39% and 3.25% and 3.48% and 3.47% and 2.83% and 2.72% and 2.86% and 3.78% and 3.19% and 3.17% and 3.18% and 3.43%
[5]; Male, Group 3 (20 mg/kg oral once a day for 2 weeks)
  Total fat (%) in mouse liver, Average: 3.27%
[5]; Male, Group 3 (20 mg/kg oral once a day for 2 weeks), 20 mg/kg
  Total fat (%) in mouse liver, individual animal analyses: 3.38% and 3.52% and 3.44% and 3.47% and 3.07% and 3.10% and 3.23% and 3.30% and 3.36% and 3.41% and 2.99% and 2.93%
[5]; dose of 5 mg/kg
  changes in total fat content of the liver: no significant changes
[5]; dose of 20 mg/kg
  changes in total fat content of the liver: no significant changes
[5]; oral, 5.0 and 20 mg/kg once a day for 2 weeks, male and female ICR mice
  signs of abnormal health: No signs of abnormal health
[6]
  ABCA1 gene expression in brain tissue: highly expressed
[7]
  APOE gene expression in brain tissue: highly expressed
